Data as given in article PMC7046148 (Scientific Reports, 2020).
Entries after “also recorded” stand apart in the source; their conditions may differ.

Legend:
SALL4 [1] = target: T1, SALL4 (Homo sapiens, UniProt Q96SW2+Q9UJQ4); assay: SALL4 nuclear protein expression (MFI) by high content imaging, Gibco hiPSCs; type: cell-based
T1 construct: Unmodified Gibco hiPSCs were either differentiated in APEL2 + GSKi or maintained in mTeSR1, and SALL4 nuclear protein expression was monitored; endogenous in cells; host or cells: Gibco hiPSCs; XCL-1 SALL4 mock hiPSC clone
T1 sequence (Q9UJQ4 whole entry): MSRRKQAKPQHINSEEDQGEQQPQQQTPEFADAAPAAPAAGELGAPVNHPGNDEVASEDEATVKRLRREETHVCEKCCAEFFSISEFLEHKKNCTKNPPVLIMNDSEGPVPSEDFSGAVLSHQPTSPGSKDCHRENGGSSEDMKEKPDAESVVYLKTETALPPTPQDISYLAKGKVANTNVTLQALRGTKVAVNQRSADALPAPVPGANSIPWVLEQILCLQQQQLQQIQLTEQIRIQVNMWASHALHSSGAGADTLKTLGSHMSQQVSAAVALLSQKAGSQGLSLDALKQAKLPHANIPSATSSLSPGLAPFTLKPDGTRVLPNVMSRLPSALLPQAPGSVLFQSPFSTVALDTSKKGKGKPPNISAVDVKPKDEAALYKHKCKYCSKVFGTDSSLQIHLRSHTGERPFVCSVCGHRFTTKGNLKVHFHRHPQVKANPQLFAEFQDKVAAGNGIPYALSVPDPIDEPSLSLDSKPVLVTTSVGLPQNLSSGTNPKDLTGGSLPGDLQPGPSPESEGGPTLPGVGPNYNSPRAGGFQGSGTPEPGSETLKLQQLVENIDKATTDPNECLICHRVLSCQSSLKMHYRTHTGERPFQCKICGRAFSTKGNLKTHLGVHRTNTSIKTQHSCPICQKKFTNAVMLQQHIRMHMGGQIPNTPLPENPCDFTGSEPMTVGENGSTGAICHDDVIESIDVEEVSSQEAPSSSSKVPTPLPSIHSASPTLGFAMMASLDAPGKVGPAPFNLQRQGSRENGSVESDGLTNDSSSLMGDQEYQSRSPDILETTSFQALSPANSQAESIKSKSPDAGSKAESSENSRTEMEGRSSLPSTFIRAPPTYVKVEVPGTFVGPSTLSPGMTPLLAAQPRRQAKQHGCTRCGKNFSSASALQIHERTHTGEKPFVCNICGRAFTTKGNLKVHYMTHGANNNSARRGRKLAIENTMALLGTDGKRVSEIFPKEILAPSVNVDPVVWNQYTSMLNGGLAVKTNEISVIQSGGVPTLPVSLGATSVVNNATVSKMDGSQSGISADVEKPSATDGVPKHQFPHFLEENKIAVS
T1 sequence (Q96SW2 whole entry): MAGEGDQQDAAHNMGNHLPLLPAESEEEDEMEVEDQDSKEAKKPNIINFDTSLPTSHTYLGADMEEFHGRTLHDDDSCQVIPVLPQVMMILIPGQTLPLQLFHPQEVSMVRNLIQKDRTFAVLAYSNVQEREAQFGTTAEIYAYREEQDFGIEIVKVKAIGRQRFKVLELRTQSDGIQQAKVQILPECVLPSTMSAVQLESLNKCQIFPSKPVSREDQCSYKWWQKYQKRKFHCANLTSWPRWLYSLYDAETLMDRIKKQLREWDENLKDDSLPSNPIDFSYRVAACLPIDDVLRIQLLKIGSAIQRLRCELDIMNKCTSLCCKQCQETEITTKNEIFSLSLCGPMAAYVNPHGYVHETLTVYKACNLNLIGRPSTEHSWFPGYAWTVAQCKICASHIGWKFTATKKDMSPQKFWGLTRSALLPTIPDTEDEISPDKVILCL
T1 sequence (Q16531 whole entry partner): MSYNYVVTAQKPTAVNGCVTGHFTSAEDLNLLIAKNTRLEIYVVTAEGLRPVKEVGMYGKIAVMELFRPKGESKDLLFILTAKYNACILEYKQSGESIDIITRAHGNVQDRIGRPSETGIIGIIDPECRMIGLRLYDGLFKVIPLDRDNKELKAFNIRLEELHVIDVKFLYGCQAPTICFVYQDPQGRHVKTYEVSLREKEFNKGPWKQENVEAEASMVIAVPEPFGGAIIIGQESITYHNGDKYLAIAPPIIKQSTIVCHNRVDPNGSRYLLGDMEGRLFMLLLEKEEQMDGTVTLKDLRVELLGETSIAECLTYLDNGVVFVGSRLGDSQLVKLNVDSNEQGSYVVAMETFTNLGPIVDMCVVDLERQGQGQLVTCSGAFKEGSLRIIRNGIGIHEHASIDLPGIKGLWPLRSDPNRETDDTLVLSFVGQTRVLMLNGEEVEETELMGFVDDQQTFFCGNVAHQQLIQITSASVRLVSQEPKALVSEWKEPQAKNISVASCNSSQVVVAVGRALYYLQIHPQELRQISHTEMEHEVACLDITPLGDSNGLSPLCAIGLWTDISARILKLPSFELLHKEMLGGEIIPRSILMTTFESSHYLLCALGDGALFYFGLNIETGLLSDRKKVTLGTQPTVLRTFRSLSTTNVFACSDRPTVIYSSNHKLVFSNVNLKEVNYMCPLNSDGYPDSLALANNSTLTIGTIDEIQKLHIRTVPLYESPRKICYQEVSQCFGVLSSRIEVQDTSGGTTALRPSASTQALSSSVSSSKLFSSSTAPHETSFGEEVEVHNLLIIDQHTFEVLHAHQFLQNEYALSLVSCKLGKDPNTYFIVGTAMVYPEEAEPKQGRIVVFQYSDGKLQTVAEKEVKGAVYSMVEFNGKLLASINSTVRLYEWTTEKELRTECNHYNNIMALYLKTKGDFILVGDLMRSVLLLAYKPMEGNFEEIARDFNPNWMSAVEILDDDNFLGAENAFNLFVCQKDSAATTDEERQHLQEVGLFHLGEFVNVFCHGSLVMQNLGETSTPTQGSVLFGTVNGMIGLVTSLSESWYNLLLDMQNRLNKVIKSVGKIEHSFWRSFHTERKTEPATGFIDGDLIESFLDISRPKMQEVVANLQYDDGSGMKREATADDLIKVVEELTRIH
Text: (§1) High content imaging analysis of SALL4 immunofluorescence with DAPI counterstaining in hiPSCs. […] Data represent the mean +/− SEM from 2 independent experiments.

SALL4 [2] = target: T1, SALL4; assay: SALL4 MFI by high content imaging, XCL-1 SALL4 mock hiPSCs; type: cell-based; conditions: SALL4 mock control hiPSCs, 8 h of treatment
Text: as §1

Gibco hiPSCs = assay: qRT-PCR of 3D fibrin cultures of hiPSCs during LPM differentiation; type: cell-based, human; conditions: thalidomide 20 µM, atRA 3 µM, 2 d in APEL2+GSKi, fibrin 3D
Procedure: For 3D differentiation studies, Gibco hiPSCs were encapsulated in fibrin at 2–4 × 10^6 cells/mL. hiPSCs were passaged with Versene (as described above) and were suspended as small clumps in a solution composed of a 1:4:5:10 dilution of 200 mM CaCl2 in DI water, 50 U/mL human thrombin (Sigma) in 0.1% cell culture BSA in DI water, DPBS, and hiPSC suspension in mTeSR1. The hiPSC suspension was mixed by pipetting, and 0.5 µL droplets of suspended hiPSCs were plated at the bottom of each well of a round-bottom sterile polypropylene plate. hiPSC suspensions were subsequently diluted 5-fold by pipetting up and down in each well with 2 µL of 10 mg/mL human fibrinogen (Sigma) in DPBS (sterile filtered prior to use). Fibrin clot formation proceeded for 10 minutes at room temperature prior to addition of mTeSR-1 and incubation under normal culture conditions overnight. […] For chondrogenic differentiation experiments, cells were cultured in APEL2 + GSKi for the described duration, followed by culture in ACF MesenCult chondrogenic differentiation medium (Stem Cell Technologies) for 17–20 days under normal culture conditions. […]
(black bars). Data are presented as mean ± SEM of the log2 fold change calculated from each sample relative to the ACTB housekeeper control and the DMSO control (normalized via the 2-ΔΔCT method) from three independent experiments. […]

human SALL4 = target: T2, human SALL4 (Homo sapiens, UniProt Q9UJQ4); assay: Immunoblot of SALL4 degradation in Lenti-x 293 CRBN-/- cells expressing human CRBN variants; type: cell-based; conditions: 20 µM thalidomide, 10 µM lenalidomide, 1 µM pomalidomide, 24 hours; relative to wild-type human CRBN
T2 construct: expressed in transfected cells; host or cells: Lenti-x 293 CRBN CRISPR KO (CRBN-/-) cells stably expressing human SALL4, transiently transfected with FLAG-CRBN variants
T2 sequence (Q96SW2 whole entry partner): as the sequence (Q96SW2 whole entry) above
T2 sequence (Q16531 whole entry partner): as the sequence (Q16531 whole entry partner) above
T2 sequence (Q9UJQ4 whole entry): as the sequence (Q9UJQ4 whole entry) above
Text: SALL4 were transiently transfected with vectors expressing GFP or human CRBN variants and treated with
CRBN-/- cells transfected with empty vector were used as a negative control. The cells were then lysed and
characterized by immunoblotting analysis for SALL4, ZFP91, GFP, CRBN, and β-actin.
CRBN CRISPR KO (CRBN -/-) cells were maintained in Dulbecco’s Modified Eagle’s medium (DMEM;
Invitrogen) supplemented with 10% fetal bovine serum (FBS; Invitrogen). All cell lines were confirmed
mycoplasma-negative using the MycoAlert Mycoplasma Detection Kit (Lonza).
CRBN-/- cells stably expressing human SALL4 was transiently transfected with 4 µg of pcDNA3-GFP, pcDNA3-
FLAG-CRBN WT (isoform 1),pcDNA3-FLAG-CRBN E377V (isoform 1) or pcDNA3-FLAG-CRBN V388I (isoform
Cells were then harvested and lysed, and
whole cell extract was subjected to immunoblotting analysis. Cells were washed with ice-cold 1X PBS and
lysed in 50mM Tris-HCl [pH 7.6], 150 mM NaCl, 1% Triton X-100, and 1x Complete ULTRA protease inhibitor
cocktail and PhosSTOP phosphatase inhibitor cocktail. Whole cell extracts were collected after
centrifugation at top speed for 10 minutes, resolved by sodium dodecyl sulfate polyacrylamide gel
electrophoresis, transferred onto a nitrocellulose membrane using the Turboblot system (Bio-Rad), and
probed with the indicated primary antibodies. Bound antibodies were detected with IRDye®-680 or -800 […]

[3] = tested on: human pluripotent stem cells (hPSCs); conditions: cited from earlier work
hPSC = tested on: hPSC; set-up: method as in PMID 24154490; conditions: cited from earlier work
XCL-1 hiPSC SALL4^G416A = assay: LPM differentiation assay (FOXF1 high content imaging), XCL-1 SALL4^G416A clone; conditions: Homo sapiens, 48 h, read-out: IC50 (±SEM) in LPM differentiation assay
Procedure: hiPSCs (Gibco or XCL-1 clones) were grown in mTeSR-1 on Matrigel, passaged into small clumps with Versene (4.5 min under normal culture conditions), counted as a single-cell suspension as described above, and seeded as small clumps at approximately 10,000 cells/well (30,000 cells/cm^2, ~15% confluence) in 100 µL mTeSR1 on Matrigel-coated µClear® 96-well plates (Greiner) for 1 d under normal culture conditions. On the day after seeding, the medium was replaced with 100 µL/well of mTeSR-1 (control) or APEL2 + GSKi containing either DMSO or diluted compounds (for a final DMSO concentration of 0.2%). The same conditions were replenished the following day for a total of 2 d of differentiation, and the following day (3 d after seeding), the medium was aspirated, and hiPSCs were fixed in 10% NBF for 15 min at room temperature.
Immunofluorescence staining was carried out by fixing/permeabilizing cells overnight in blocking buffer containing 3% BSA (Sigma) in DPBS-T, which contains DPBS + Ca^2+//Mg^2+ with 0.3% Triton-X100 (Sigma). Fixed and permeabilized cells were incubated in primary antibodies diluted (as noted in Table 1) in antibody buffer, consisting of 1% BSA in DPBS-T, overnight at 4 °C.
Cells were washed in blocking buffer for >6 hours at 4 °C and subsequently incubated in secondary antibody diluted in antibody buffer overnight at 4 °C. Secondary antibodies were washed out in antibody buffer for >4 h at 4 °C, and hiPSCs were counterstained with DAPI (Fisher) at 10 µg/mL in DPBS-T for 2 h. hiPSCs were washed in DPBS-T for >2 h at 4 °C, and immediately before imaging, the DPBS-T was replaced with DPBS. […] Chemical dose-response experiments and experiments examining the time-course of marker expression during LPM differentiation were imaged at 10X magnification using the Cellomics ArrayScan or CellInsight Cx7 LZR High Content Screening Platform and HCS Studio Cell Analysis Software (Thermo Fisher). An artificial threshold was uniformly applied to all images to generate the percentage of DAPI+ nuclei that stained positively for FOXF1 or NANOG. Thresholding for FOXF1 and T was performed relative to undiffer-entiated hiPSCs, and thresholding for SALL4 and OCT4 was performed relative to a non-expressing cell type (human primary endothelial cells). Settings for image acquisition and processing were uniformly applied between XCL-1 clones. […] Experiments were repeated in quadruplicate unless otherwise stated, and data are presented as mean ± SEM. Nonlinear regression analysis was performed using the 4-parameter [inhibitor]-vs-response curve fitting algorithm in Prism (GraphPad).
In addition, XCL-1 hiPSCs were engineered with CRISPR/Cas9 to express a homozygous SALL4 G416A mutation (hereafter referred to as the SALL4^G416A clone), and the homozygous SALL4 G416A mutation was confirmed by next-generation sequencing (Supplementary Fig. 2).

effect on SALL4 MFI (SALL4 [2])	SALL4 degradation in human cells expressing CRBN with the V388I mutation (human SALL4)	IC50 (XCL-1 hiPSC SALL4^G416A)	effect on SALL4 MFI (SALL4 [1]; Gibco hiPSCs, 8 h of treatment, dose-response)	SMILES	time-course of SALL4 MFI (SALL4 [1]; 20 µM, Gibco hiPSCs in mTeSR1 or APEL2+GSKi, 2, 8 and 24 h after dosing)	effect on marker gene expression in 3D LPM differentiation (Gibco hiPSCs)	concentrations with cytotoxicity or functional effects on hPSCs and hPSC-derived mesoderm [3]	non-cytotoxic concentrations at which the definitive endoderm assay was sensitive (hPSC)
potently reduced SALL4 MFI	failed to induce SALL4 degradation	> 50 µM	–	O=C1CCC(N2C(=O)c3ccccc3C2=O)C(=O)N1 (stereo not shown) [Thalidomide, thalidomide]	rapid decline in SALL4 MFI 2 h after dosing	reduced FOXF1 and KDR expression	above 100 µM	below 1 µM
–	–	9.1 ± 5.9 µM	did not reduce SALL4 MFI	CC1=C(/C=C/C(C)=C/C=C/C(C)=C/C(=O)O)C(C)(C)CCC1 [atRA, all-trans retinoic acid]	–	reduced FOXF1 and KDR expression; also recorded: reduced the expression of TBXT and GATA4	–	–
